For assay [1], the system named is Rattus norvegicus. The assay is described as follows: Hypotensive effect in conscious spontaneously hypertensive rat assessed as reduction in blood pressure at 100 to 300 mg/kg, po. The class given is functional, organism-based.
Assay [2] deals with Rattus norvegicus. The assay is described as follows: Hypotensive effect in conscious spontaneously hypertensive rat assessed as reduction in blood pressure at 50 mg/kg, po administered as single dose. The class given is functional.
For assay [3], the system named is Rattus norvegicus. The assay is described as follows: Hypotensive effect in conscious spontaneously hypertensive rat assessed as reduction in blood pressure at 100 mg/kg, po administered as single dose. The class given is functional.

Structures are written as SMILES. Activity calls are given as the source filed them. No cut-off for these calls is given here.

In the case of `NC(CO)(Cc1ccc(O)cc1)C(=O)O` (centres undefined), the outcome in the assay on Rattus norvegicus [1] was inactive. Same read-out and setting: the result for `NC(CO)(Cc1ccc(O)c(O)c1)C(=O)O` (centres undefined) reads “inactive”. In the case of `C[C@](N)(Cc1ccc(O)c(O)c1)C(=O)O` [METHYLDOPA], the Activity amounted to 44 mmHg in the assay with Rattus norvegicus [2] and 85 mmHg in the assay on Rattus norvegicus [3].
